Patent US11136311B2, “Heteroaromatic derivatives as NIK inhibitors” (Janssen Pharmaceutica NV, priority 2016, dated 2021)
Read-outs that look alike come from different tables or passages of the source.

What was measured:
KMS12-BM cells = experiment: Antiproliferative activity on KMS12-BM (NIK WT) multiple myeloma cells (CellTiter-Glo); assay type: cell-based, human; conditions: KMS12-BM (NIK WT) cells, 96 hr, averaged values, read-out: KMS-12 Proliferation inhibition (IC50 (nM))
Method in brief: (§1)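 Viability was read by CellTiter-Glo after 96 hr compound exposure (9-point, 1:3 serial dilutions; 0.3% DMSO final). JJN-3 and KMS12-BM cells were seeded at 15000 and 20000 per well respectively in RPMI 1640/10% FCS; blank-subtracted signals were given as percent of drug-free controls.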

JJN-3 cells = experiment: Antiproliferative activity on JJN-3 (NIK translocated) multiple myeloma cells (CellTiter-Glo); assay type: cell-based, human; conditions: JJN-3 (NIK translocated) cells, 96 hr, averaged values, read-out: JJN-3 Proliferation inhibition (IC50 (nM))
Method in brief: as §1

[1] = system: P-IKKα levels in L363 cells; experiment: Effect of compounds on P-IKKα levels in L363 (NIK translocated multiple myeloma) cells; assay type: cell-based, human; conditions: averaged values, read-out: Inhibition of pIKKα_L-363 (IC50 (nM))
Method in brief: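 L363 myeloma cells were primed 24 h with BAFF, then treated 2 h with compound (8-point, 1:3 dilutions, 1% DMSO) at 37°C. P-IKKα in lysates was measured by Mesoscale sandwich immunoassay, with the full-inhibition blank subtracted. IC50 came from a sigmoidal fit of % inhibition of control against log concentration.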

[2] = biological target: recombinant human NF-kappaB-inducing kinase (NIK/MAP3K14) (Homo sapiens (Human), UniProt Q99558); experiment: Inhibition of auto-phosphorylation of recombinant human NIK/MAP3K14 activity (AlphaScreen); assay type: biochemical; conditions: averaged values over all measurements on all batches
recombinant human NF-kappaB-inducing kinase (NIK/MAP3K14), sequence (Q99558 whole entry): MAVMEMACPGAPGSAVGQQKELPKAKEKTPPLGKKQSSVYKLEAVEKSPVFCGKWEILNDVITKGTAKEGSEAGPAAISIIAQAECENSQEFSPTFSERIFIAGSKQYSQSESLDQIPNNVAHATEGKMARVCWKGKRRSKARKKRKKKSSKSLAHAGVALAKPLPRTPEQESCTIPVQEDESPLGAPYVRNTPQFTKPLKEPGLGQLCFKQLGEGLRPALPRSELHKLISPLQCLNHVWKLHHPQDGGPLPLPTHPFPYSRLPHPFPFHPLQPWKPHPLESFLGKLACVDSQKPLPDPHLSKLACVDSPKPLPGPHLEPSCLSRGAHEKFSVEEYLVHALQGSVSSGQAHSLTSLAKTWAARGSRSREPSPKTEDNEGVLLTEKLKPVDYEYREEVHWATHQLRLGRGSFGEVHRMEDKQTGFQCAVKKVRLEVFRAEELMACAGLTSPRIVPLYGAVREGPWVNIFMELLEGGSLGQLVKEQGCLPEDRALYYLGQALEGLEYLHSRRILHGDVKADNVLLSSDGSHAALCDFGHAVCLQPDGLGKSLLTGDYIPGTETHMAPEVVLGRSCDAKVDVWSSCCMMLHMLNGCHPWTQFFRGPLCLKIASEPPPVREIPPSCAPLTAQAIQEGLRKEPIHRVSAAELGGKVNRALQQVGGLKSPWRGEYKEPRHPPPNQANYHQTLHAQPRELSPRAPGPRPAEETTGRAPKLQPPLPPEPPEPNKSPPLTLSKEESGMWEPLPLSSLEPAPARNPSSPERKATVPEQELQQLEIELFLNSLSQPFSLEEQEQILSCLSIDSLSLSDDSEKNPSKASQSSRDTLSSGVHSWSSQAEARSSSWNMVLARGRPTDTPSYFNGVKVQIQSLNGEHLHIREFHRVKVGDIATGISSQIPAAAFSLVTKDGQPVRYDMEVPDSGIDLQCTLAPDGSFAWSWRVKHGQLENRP
Method in brief: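 AlphaScreen read-out, using anti-phospho-IKK Ser176/180 antibody, tracked NIK autophosphorylation after 1 h at 25° C. Reactions held 0.2 nM GST-NIK, 25 microM ATP and compound in 1% DMSO, Tris pH 7.5 buffer. IC50 fitted sigmoidally to blank-subtracted inhibition data.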

[3] = Homo sapiens, L-363, L363 cells

| SMILES | IC50 (KMS12-BM cells; Homo sapiens, KMS-12-BM, 96 h) [nM] | IC50 (JJN-3 cells; Homo sapiens, JJN-3, 96 h) [nM] | IC50 [1, 3] [nM] | IC50 [2] [nM] | IC50 (JJN-3 cells) [nM] | IC50 ([1]; L363 cells) [nM] | IC50 (KMS12-BM cells) [nM] |
| --- | --- | --- | --- | --- | --- | --- | --- |
| C[C@]1(CO)CNc2c(C#N)cc(-c3ccnc(Nc4cc(Cl)nn4C[C@@H]4CCCO4)n3)cc21 [Compound 113] | 3020 | 69 | 42 | 6.2 |  |  |  |
| Cc1cc(Nc2nccc(-c3cc(C#N)c4c(c3)[C@@](C)(CO)CN4)n2)n(CCC(C)(C)O)n1 [Compound 108] | ~3160 | ~724 | 14 | 4.1 |  |  |  |
| CCn1ncc(Nc2nccc(-c3cc(C#N)c4c(c3)[C@@](C)(CO)CN4)n2)c1N1CCOCC1 [Compound 199] | > 10000 | 1900 | 25 | 3.5 |  |  |  |
| C[C@]1(CO)CNc2c(C#N)cc(-c3ccnc(Nc4cc(Cl)nn4C[C@H]4COCCO4)n3)cc21 [Compound 133] | 6610 | 389 | 65 | 6.9 |  |  |  |
| Cn1ccc(Nc2nccc(-c3cc(C#N)c4c(c3)[C@@](C)(CN3CCN(C5CC5)CC3)CN4)n2)n1 [Compound 176] | ~3310 | 65 | 76 | 32 |  |  |  |
| Cc1cc(Nc2nccc(-c3cc(C#N)c4c(c3)[C@@](C)(CO)CN4)n2)n(CC2CCCOC2)n1 (mixture of isomers) [Compound 94] | 4170 | 178 | 7 | 5.6 |  |  |  |
| Cc1cc(Nc2nccc(-c3cc(C#N)c4c(c3)[C@@](C)(CO)CN4)n2)n(CC2(C)COC2)n1 [Compound 111] | 5130 | 355 | ~331 | 9.3 |  |  |  |
| Cc1cc(Nc2nccc(-c3cc(C#N)c4c(c3)[C@@](C)(CO)CN4)n2)n(CC2CCCN(C)C2)n1 (single isomer, unassigned) [Compound 140] | 6460 |  |  | 8.3 | 174 | 145 |  |
| COCCn1nc(C)cc1Nc1nccc(-c2cc(C#N)c3c(c2)[C@@](C)(CO)CN3)n1 [Compound 42] | 5980 | 398 | 68 | 4.2 |  |  |  |
| C[C@@]1(CO)CNc2c(C#N)cc(-c3ccnc(Nc4cnn(CCC5CC5)c4CN4CCOCC4)n3)cc21 [Compound 159] |  |  |  | 10 | 1510 | 91 | > 10000 |
| C[C@]1(CO)CNc2c(C#N)cc(-c3ccnc(Nc4cc(C#N)nn4CCC4CC4)n3)cc21 [Compound 128] | 1900 | 417 | ~41 | 3.7 |  |  |  |
| CC(C)CCc1c(Nc2nccc(-c3cc(C#N)c4c(c3)[C@@](C)(CO)CN4)n2)cnn1CCO [Compound 127] | > 10000 | 617 | 25 | 2 |  |  |  |
| Cc1cc(Nc2nccc(-c3cc(C#N)c4c(c3)[C@@](C)(CO)CN4)n2)n(CCC2(C)COC2)n1 [Compound 154] | 2290 | 646 | 15 | 4.9 |  |  |  |
| CC(C)CCn1nc(C#N)cc1Nc1nccc(-c2cc(C#N)c3c(c2)[C@@](C)(CO)CN3)n1 [Compound 93] | 457 | 182 | 37 | 11 |  |  |  |
| COCCCn1nc(Cl)cc1Nc1nccc(-c2cc(C#N)c3c(c2)[C@@](C)(CO)CN3)n1 [Compound 112] | 8910 | 69 | 13 | 2.9 |  |  |  |
| CNC(=O)c1cc(Nc2nccc(-c3cc(C#N)c4c(c3)[C@@](C)(CO)CN4)n2)n(C(C)C)n1 [Compound 183] | ~9770 | 1410 | 35 | 22 |  |  |  |

| SMILES | IC50 (KMS12-BM cells; Homo sapiens, KMS-12-BM, 96 h) [nM] | IC50 (JJN-3 cells; Homo sapiens, JJN-3, 96 h) [nM] | IC50 [1, 3] [nM] | IC50 [2] [nM] | IC50 (JJN-3 cells) [nM] | IC50 ([1]; L363 cells) [nM] | IC50 (KMS12-BM cells) [nM] |
| --- | --- | --- | --- | --- | --- | --- | --- |
| CC(C)Cn1nc(P(C)(C)=O)cc1Nc1nccc(-c2cc(C#N)c3c(c2)[C@@](C)(CO)CN3)n1 [Compound 119] | > 10000 | 3160 | 43 | 9.6 |  |  |  |
| CN1CC[C@@H](Cn2nc(Cl)cc2Nc2nccc(-c3cc(C#N)c4c(c3)[C@@](C)(CO)CN4)n2)C1 [Compound 161] | 2240 | 204 | 83 | 4.3 |  |  |  |
| Cc1nn(C2CCN(C)CC2)cc1Nc1nccc(-c2cc(C#N)c3c(c2)[C@@](C)(CO)CN3)n1 [Compound 122] | ~1660 | 479 | 1020 | 6.8 |  |  |  |
| Cc1cc(Nc2nccc(-c3cc(C#N)c4c(c3)[C@@](C)(CO)CN4)n2)n(CCCO)n1 [Compound 92] | 1510 | ~224 | 7 | 3.5 |  |  |  |
| CC(C)CCc1c(Nc2nccc(-c3cc(C#N)c4c(c3)[C@@](C)(CO)CN4)n2)cnn1C [Compound 99] | 9770 | 288 | 3 | 2.9 |  |  |  |
| C[C@]1(CO)CNc2c(C#N)cc(-c3ccnc(Nc4cn(CC(F)F)nc4C4CC4)n3)cc21 [Compound 205] | ~4900 | 5 | 1 | 2.2 |  |  |  |
| CC(C)CCc1c(Nc2nccc(-c3cc(C#N)c4c(c3)[C@@](C)(CO)CN4)n2)cnn1C[C@@H]1COCCO1 [Compound 121] | > 10000 | 282 | 25 | 5 |  |  |  |
| CN1CCC(F)(Cn2nc(Cl)cc2Nc2nccc(-c3cc(C#N)c4c(c3)[C@@](C)(CO)CN4)n2)CC1 [Compound 160] | ~5010 | 69 | 34 | 3.6 |  |  |  |
| Cc1cc(Nc2nccc(-c3cc(C#N)c4c(c3)[C@@](C)(CO)CN4)n2)n(CC2COCCO2)n1 (single isomer, unassigned) [Compound 85] |  |  |  | 9.8 | 380 | 31 | ~4900 |
| CNC(=O)c1cc(Nc2nccc(-c3cc(C#N)c4c(c3)[C@@](C)(CO)CN4)n2)n(CCC2CC2)n1 [Compound 198] | > 10000 | 112 | 20 | 6.8 |  |  |  |
| Cc1cc(Nc2nccc(-c3cc(C#N)c4c(c3)[C@@](C)(CO)CN4)n2)n(CC2CCN(CC(F)(F)F)CC2)n1 [Compound 137] | > 10000 | 676 | 36 | 6.3 |  |  |  |
| CN1CCN(C(=O)c2nn(CC(F)F)cc2Nc2nccc(-c3cc(C#N)c4c(c3)[C@@](C)(CO)CN4)n2)CC1 [Compound 184] | > 10000 | 224 | 17 | 5.4 |  |  |  |
| COC[C@H](O)Cn1ncc(Nc2nccc(-c3cc(C#N)c4c(c3)[C@@](C)(CO)CN4)n2)c1OC [Compound 221] | > 10000 | 2290 | ~105 | 14.8 |  |  |  |
| CC(C)CCc1c(Nc2nccc(-c3cc(C#N)c4c(c3)[C@@](C)(CO)CN4)n2)cnn1CC1CCN(CC(F)F)CC1 [Compound 169] | ~7080 | 389 | 16 | 3.9 |  |  |  |
| C[C@]1(CO)CNc2c(C#N)cc(-c3ccnc(Nc4cc(Cl)nn4CC4CCN(CC(F)(F)F)CC4)n3)cc21 [Compound 152] | 7940 | 646 | 135 | 17 |  |  |  |
